Source: patent US20230381327A1, “REACTIVE CONJUGATES” (DEBIOPHARM RESEARCH & MANUFACTURING S.A., priority 2020, published 2023)
Residues, ends and D or L forms follow the SMILES beside them.

Tests used:
trastuzumab = molecular target: T1, trastuzumab (Homo sapiens, UniProt P01857, D239E/L241M); assay: Preparation of trastuzumab-payload conjugates in solution, HRMS analysis (DoC, Fc/F(ab)2 selectivity); conditions: 10 eq of peptide-payload conjugate
T1 construct: purchased Roche Herceptin®
Description: Deglycosylation of the conjugates was achieved by incubating 1 unit of Endo S per μg of conjugate in the formulation buffer (37° C.-1 hour).
The average Degree of Conjugation (DoC) values were calculated using the HRMS data and the Equation 1 (Eq. 1) below.
where I(DoCk) is the relative peak intensity of conjugates with k add-on molecules per antibody.
After payload conjugation, the reaction buffer was diluted with 64 μL of 0.1 M glycine pH 2.5. The antibody conjugate was then purified by gel filtration chromatography using a pre-equilibrated with 0.1 M glycine pH 2.5 Bio-spin P-30 Column (bed height: 3.7 cm, overall length: 5 cm; available from Bio-Rad, USA) and then eluted with 0.1M glycine pH 2.5. The purified antibody conjugate fractions were neutralized with 1M PBS pH 8.5 (10 μL).
(§1) The conjugation of the payload moiety to trastuzumab was evaluated by HRMS analysis (as described above). The payload loading ratios (selectivity) between Fc and F(ab)2 were evaluated by digesting the conjugates with GingisKhan protease (1 unit per μg of antibody conjugate in the presence of 2 mM cysteine, 0.1M Tris, pH 8.0 for 1 hour at 37° C.), and subsequent HRMS analysis (as described above). The Degree of Conjugation (DoC) of the trastuzumab-payload conjugates was evaluated based on the results of the HRMS analysis (as described above).
(§2) DoC Fc=DoC−DoC F(ab)2, Selectivity Fc/F(ab)2=(DoC−DoC F(ab)2)/Doc (Fab)2

rituximab = molecular target: T2, rituximab (Homo sapiens, UniProt P01857); assay: Antibody-payload conjugation, HRMS analysis (Example 12)
T2 construct: purchased Roche RITUXAN®
Description: To prepare the trastuzumab-payload conjugates, 2 eq of reactive conjugate prepared in Examples 5-8, 10 (2.4 nmol) in DMSO (2-7% v/v in final reaction mixture) was added to a solution of trastuzumab (1 eq, 1.2 nmol; commercial trastuzumab Herceptin® available from Roche which was buffer-exchanged into phosphate-buffered saline (PBS) prior to the conjugation) diluted in 50 mM NaHCO3 pH 9.0 (20-28 μL) and the reaction mixture (36 μL) was stirred at room temperature for 2 hours.
as §1
The propensity of the reactive conjugates of the present invention to react with different antibodies was evaluated using commercially available atezolizumab, rituximab, trastuzumab emtansine, brentuximab-vedotin, aflibercept, panitumumab, pembrolizumab and Fc region only. Antibody-DOTA/FITC conjugates were prepared according to the same procedure as described in Example 11 above using peptide conjugates (indicated in Table 19) and the aforementioned antibodies.
as §2

Fc region of trastuzumab = Fc region of trastuzumab (Homo sapiens, UniProt P01857); assay: Competitive FP binding assay against Fc-III-FAM
Description: All sample preparations were done in PBS pH 7.0 containing 0.05% Tween. Each experiment was performed in triplicate.

## O=C(OCCOCCNC(=S)Nc1ccc2c(c1)C(=O)OC21c2ccc(O)cc2Oc2cc(O)ccc21)Oc1ccc(C(=O)O)cc1 [Carbonate-FITC, 4-[2-[2-[(3′,6′-dihydroxy-3-oxo-spiro [isobenzofuran-1,9′-xanthene]-5-yl)carbamothioylamino]ethoxy]ethoxycarbonyloxy]benzoic acid]
trastuzumab
  DoC: 0.83
  DoC F(ab)2: 0.54
  DoC Fc: 0.29
  Labeled mAb (%): 59%
  Selectivity Fc/F(ab)2: 0.5
rituximab
  DoC F(ab)2: 0.20
  Selectivity Fc/F(ab)2: 3.2
rituximab; procedure of Example 11
  DoC: 0.84
  Labeled mAb (%): 59%
rituximab; some values extrapolated as DoC − DoC F(ab)2
  DoC Fc: 0.64

## CC(=O)N[C@@H](CC(=O)O)C(=O)N[C@H]1CSSC[C@@H](C(=O)N[C@H](C(N)=O)[C@@H](C)O)NC(=O)[C@H](Cc2c[nH]c3ccccc23)NC(=O)[C@H](C(C)C)NC(=O)[C@H](CC(C)C)NC(=O)[C@H](CCC(=O)O)NC(=O)CNC(=O)[C@H](CCCCN)NC(=O)[C@H](Cc2c[nH]cn2)NC(=O)[C@H](Cc2c[nH]c3ccccc23)NC(=O)[C@H](C)NC1=O [Compound L6K] (HELM PEPTIDE1{[ac].D.C.A.W.H.K.G.E.L.V.W.C.T.[am]}$PEPTIDE1,PEPTIDE1,3:R3-13:R3$$$V2.0)
Fc region of trastuzumab
  binding to the Fc region of trastuzumab compared to Fc-III (in words): moderate binding efficiency

## CC(=O)N[C@@H](CC(=O)O)C(=O)N[C@H]1CSSC[C@@H](C(=O)N[C@H](C(N)=O)[C@@H](C)O)NC(=O)[C@H](Cc2c[nH]c3ccccc23)NC(=O)[C@H](C(C)C)NC(=O)[C@H](CC(C)C)NC(=O)[C@H](CCC(=O)O)NC(=O)CNC(=O)[C@H](CC(C)C)NC(=O)[C@H](Cc2c[nH]cn2)NC(=O)[C@H](CCCCN)NC(=O)[C@H](C)NC1=O [Compound W4K] (HELM PEPTIDE1{[ac].D.C.A.K.H.L.G.E.L.V.W.C.T.[am]}$PEPTIDE1,PEPTIDE1,3:R3-13:R3$$$V2.0)
Fc region of trastuzumab
  binding to the Fc region of trastuzumab compared to Fc-III (in words): significant impact on peptide binding

## CC(=O)N[C@@H](CC(=O)O)C(=O)N[C@H]1CSSC[C@@H](C(=O)N[C@H](C(N)=O)[C@@H](C)O)NC(=O)[C@H](CCCCN)NC(=O)[C@H](C(C)C)NC(=O)[C@H](CC(C)C)NC(=O)[C@H](CCC(=O)O)NC(=O)CNC(=O)[C@H](CC(C)C)NC(=O)[C@H](Cc2c[nH]cn2)NC(=O)[C@H](Cc2c[nH]c3ccccc23)NC(=O)[C@H](C)NC1=O [Compound W11K] (HELM PEPTIDE1{[ac].D.C.A.W.H.L.G.E.L.V.K.C.T.[am]}$PEPTIDE1,PEPTIDE1,3:R3-13:R3$$$V2.0)
Fc region of trastuzumab
  binding to the Fc region of trastuzumab compared to Fc-III (in words): significant impact on peptide binding

## CC(=O)N[C@@H](CC(=O)O)C(=O)N[C@H]1CSSC[C@@H](C(=O)N[C@H](C(N)=O)[C@@H](C)O)NC(=O)[C@H](Cc2c[nH]c3ccccc23)NC(=O)[C@H](C(C)C)NC(=O)[C@H](CC(C)C)NC(=O)[C@H](CCC(=O)O)NC(=O)CNC(=O)[C@H](CC(C)C)NC(=O)[C@H](CCCCN)NC(=O)[C@H](Cc2c[nH]c3ccccc23)NC(=O)[C@H](C)NC1=O [Compound H5K] (HELM PEPTIDE1{[ac].D.C.A.W.K.L.G.E.L.V.W.C.T.[am]}$PEPTIDE1,PEPTIDE1,3:R3-13:R3$$$V2.0)
Fc region of trastuzumab
  binding to the Fc region of trastuzumab compared to Fc-III (in words): moderate binding efficiency

## CC(=O)N[C@@H](CC(=O)O)C(=O)N[C@H]1CSSC[C@@H](C(=O)N[C@H](C(N)=O)[C@@H](C)O)NC(=O)[C@H](Cc2c[nH]c3ccccc23)NC(=O)[C@H](CCCCN)NC(=O)[C@H](CC(C)C)NC(=O)[C@H](CCC(=O)O)NC(=O)CNC(=O)[C@H](CC(C)C)NC(=O)[C@H](Cc2c[nH]cn2)NC(=O)[C@H](Cc2c[nH]c3ccccc23)NC(=O)[C@H](C)NC1=O [Compound V10K] (HELM PEPTIDE1{[ac].D.C.A.W.H.L.G.E.L.K.W.C.T.[am]}$PEPTIDE1,PEPTIDE1,3:R3-13:R3$$$V2.0)
Fc region of trastuzumab
  binding to the Fc region of trastuzumab compared to Fc-III (in words): moderate binding efficiency

## CC(=O)N[C@@H](CC(=O)O)C(=O)N[C@H]1CSSC[C@@H](C(=O)N[C@H](C(N)=O)[C@@H](C)O)NC(=O)[C@H](Cc2c[nH]c3ccccc23)NC(=O)[C@H](C(C)C)NC(=O)[C@H](CC(C)C)NC(=O)[C@H](CCC(=O)O)NC(=O)CNC(=O)[C@H](CC(C)C)NC(=O)[C@H](Cc2c[nH]cn2)NC(=O)[C@H](Cc2c[nH]c3ccccc23)NC(=O)[C@H](CCCCN)NC1=O [Compound A3K] (HELM PEPTIDE1{[ac].D.C.K.W.H.L.G.E.L.V.W.C.T.[am]}$PEPTIDE1,PEPTIDE1,3:R3-13:R3$$$V2.0)
Fc region of trastuzumab
  binding to the Fc region of trastuzumab compared to Fc-III (in words): moderate binding efficiency
